In patent US8563729B2, “Thienopyridone derivatives as AMP-activated protein kinase (AMPK) activators” (Merck Patent GmbH, priority 2008, dated 2013):

Tests used:
[1] = ob/ob and db/db mice, 8 day AICAR administration; cited from earlier work
[2] = target: T1, AMPK protein (recombinant α1β1γ2) (Homo sapiens, UniProt Q13131+Q9Y478); assay: AMPK enzymatic activity (Delfia, AMARA peptide substrate); type: biochemical; conditions: compound 30 μM vs AMP 30 μM; 125 μM ATP; ratio 90% or higher = direct activator
T1 construct: made in house; host or cells: E. coli
How it was run: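 Human α1β1γ2 AMPK expressed in E. coli, reactivated in vitro by LKB1, assayed in 50 mM Hepes pH 7.4 with 125 μM ATP and AMARA peptide for 30 min at room temperature; phosphorylation detected by Delfia anti-phosphoserine antibody. Activity = % of basal control at 30 μM compound relative to that of 30 μM AMP.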

H-2 Kb cells = assay: Glucose uptake in H-2 Kb cells (in vitro cellular test); type: cell-based, mouse; conditions: H-2 Kb cells differentiated in muscle, 4 hours incubation, 2-deoxy-D-[1,2 3H] glucose uptake 10 min
How it was run: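 H-2 Kb tsA58 mouse cells were differentiated to muscle at 37° C without interferon-γ for 3 days, then exposed to compound for 4 h in 1 g/l glucose DMEM. Uptake of 3H-2-deoxyglucose over 10 min was measured by scintillation. Activity was taken as the compound concentration matching or exceeding uptake with insulin (170 nM), scored ≦10 or >10 micro Molar.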

T1 sequence (Q13131 whole entry): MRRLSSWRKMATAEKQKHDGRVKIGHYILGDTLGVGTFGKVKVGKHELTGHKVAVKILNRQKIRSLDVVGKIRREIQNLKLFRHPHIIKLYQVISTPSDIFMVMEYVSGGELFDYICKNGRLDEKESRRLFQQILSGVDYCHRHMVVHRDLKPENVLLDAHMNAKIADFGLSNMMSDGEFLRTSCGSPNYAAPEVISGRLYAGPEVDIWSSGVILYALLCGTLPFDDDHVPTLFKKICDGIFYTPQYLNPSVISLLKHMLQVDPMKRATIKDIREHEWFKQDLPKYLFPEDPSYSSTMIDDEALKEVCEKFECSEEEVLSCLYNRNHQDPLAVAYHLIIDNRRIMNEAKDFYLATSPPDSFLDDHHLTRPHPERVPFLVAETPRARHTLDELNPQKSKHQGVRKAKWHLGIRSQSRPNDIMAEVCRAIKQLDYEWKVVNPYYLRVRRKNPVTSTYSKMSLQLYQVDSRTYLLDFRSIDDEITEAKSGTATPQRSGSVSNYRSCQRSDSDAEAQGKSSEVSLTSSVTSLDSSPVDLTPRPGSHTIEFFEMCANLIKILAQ
T1 sequence (Q9Y478 whole entry): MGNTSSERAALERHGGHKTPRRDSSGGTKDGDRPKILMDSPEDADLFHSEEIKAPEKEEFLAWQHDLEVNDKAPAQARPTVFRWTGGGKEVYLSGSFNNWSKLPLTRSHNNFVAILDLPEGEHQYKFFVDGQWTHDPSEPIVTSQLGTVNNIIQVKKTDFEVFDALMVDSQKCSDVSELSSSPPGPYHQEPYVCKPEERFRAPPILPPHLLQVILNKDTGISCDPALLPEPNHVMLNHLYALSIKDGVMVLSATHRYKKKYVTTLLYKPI
T1 sequence (Q9UGJ0 whole entry partner): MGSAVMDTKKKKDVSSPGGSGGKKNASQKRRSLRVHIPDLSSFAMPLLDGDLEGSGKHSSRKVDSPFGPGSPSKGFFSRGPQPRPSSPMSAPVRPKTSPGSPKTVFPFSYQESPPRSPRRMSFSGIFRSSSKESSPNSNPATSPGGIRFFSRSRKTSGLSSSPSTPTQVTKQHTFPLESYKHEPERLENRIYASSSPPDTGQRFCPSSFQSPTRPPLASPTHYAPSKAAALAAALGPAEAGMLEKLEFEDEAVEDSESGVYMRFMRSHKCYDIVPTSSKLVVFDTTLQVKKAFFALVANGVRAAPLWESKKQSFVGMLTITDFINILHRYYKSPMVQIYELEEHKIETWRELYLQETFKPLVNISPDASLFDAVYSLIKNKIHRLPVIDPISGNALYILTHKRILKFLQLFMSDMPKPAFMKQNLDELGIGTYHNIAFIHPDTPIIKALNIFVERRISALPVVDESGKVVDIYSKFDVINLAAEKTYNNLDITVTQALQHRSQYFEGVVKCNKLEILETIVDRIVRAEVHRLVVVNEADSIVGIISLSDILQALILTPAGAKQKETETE

Structure (SMILES): NC(=O)c1ncn([C@@H]2O[C@H](CO)[C@@H](O)[C@H]2O)c1N [AICAR]
- reduction of blood glucose [1]: 35%

Structure (SMILES): Cc1ccc(-c2c(O)c3c(-c4ccc(F)cc4O)csc3[nH]c2=O)cc1 [Compound 188]
- activity: Ratio between the % of control (basal activity) of compound of formula (I) at 30 μM and the % of control (basal activity) of AMP at 30 μM [2]: 183%
- Activity (table III): Concentration of compound (I) for a glucose uptake equal or higher to glucose uptake induced by insulin (170 nM) (H-2 Kb cells): + (^+ or *concentration of compound (I) >10 micro Molar)

Structure (SMILES): COc1ccc(F)cc1-c1c(Cl)sc2[nH]c(=O)c(-c3ccccc3)c(O)c12 [Compound 189]
- activity: Ratio between the % of control (basal activity) of compound of formula (I) at 30 μM and the % of control (basal activity) of AMP at 30 μM [2]: 175%
- Activity (table III): Concentration of compound (I) for a glucose uptake equal or higher to glucose uptake induced by insulin (170 nM) (H-2 Kb cells): + (^+ or *concentration of compound (I) >10 micro Molar)

Structure (SMILES): COc1ccc(-c2c(Cl)sc3[nH]c(=O)c(-c4ccccc4)c(O)c23)cc1OC [Compound 190]
- activity: Ratio between the % of control (basal activity) of compound of formula (I) at 30 μM and the % of control (basal activity) of AMP at 30 μM [2]: 256%
- Activity (table III): Concentration of compound (I) for a glucose uptake equal or higher to glucose uptake induced by insulin (170 nM) (H-2 Kb cells): + (^+ or *concentration of compound (I) >10 micro Molar)

Structure (SMILES): COc1ccc(-c2c(O)c3c(-c4ccc(F)cc4O)csc3[nH]c2=O)cc1 [Compound 191]
- activity: Ratio between the % of control (basal activity) of compound of formula (I) at 30 μM and the % of control (basal activity) of AMP at 30 μM [2]: 187%
- Activity (table III): Concentration of compound (I) for a glucose uptake equal or higher to glucose uptake induced by insulin (170 nM) (H-2 Kb cells): + (^+ or *concentration of compound (I) >10 micro Molar)

Structure (SMILES): Cc1ccc(-c2c(Cl)sc3[nH]c(=O)c(-c4cccc(C(=O)O)c4)c(O)c23)c(O)c1 [Compound 192]
- activity: Ratio between the % of control (basal activity) of compound of formula (I) at 30 μM and the % of control (basal activity) of AMP at 30 μM [2]: 193%
- Activity (table III): Concentration of compound (I) for a glucose uptake equal or higher to glucose uptake induced by insulin (170 nM) (H-2 Kb cells): ++ (^++ or **concentration of compound (I) ≦10 micro Molar)

Structure (SMILES): O=c1[nH]c2sc(Cl)c(-c3cc(F)c(F)cc3O)c2c(O)c1-c1ccccc1 [Compound 193]
- activity: Ratio between the % of control (basal activity) of compound of formula (I) at 30 μM and the % of control (basal activity) of AMP at 30 μM [2]: 139%
- Activity (table III): Concentration of compound (I) for a glucose uptake equal or higher to glucose uptake induced by insulin (170 nM) (H-2 Kb cells): + (^+ or *concentration of compound (I) >10 micro Molar)

Structure (SMILES): Cc1ccc(-c2c(O)c3c(-c4ccc(C)cc4O)c(Cl)sc3[nH]c2=O)cc1 [Compound 194]
- activity: Ratio between the % of control (basal activity) of compound of formula (I) at 30 μM and the % of control (basal activity) of AMP at 30 μM [2]: 183%
- Activity (table III): Concentration of compound (I) for a glucose uptake equal or higher to glucose uptake induced by insulin (170 nM) (H-2 Kb cells): ++ (^++ or **concentration of compound (I) ≦10 micro Molar)

Structure (SMILES): Cc1ccc(-c2c(Cl)sc3[nH]c(=O)c(-c4cccnc4)c(O)c23)c(O)c1 [Compound 195]
- activity: Ratio between the % of control (basal activity) of compound of formula (I) at 30 μM and the % of control (basal activity) of AMP at 30 μM [2]: 156%
- Activity (table III): Concentration of compound (I) for a glucose uptake equal or higher to glucose uptake induced by insulin (170 nM) (H-2 Kb cells): + (^+ or *concentration of compound (I) >10 micro Molar)

Structure (SMILES): Cc1ccc(-c2c(Cl)sc3[nH]c(=O)c(-c4ccccc4)c(O)c23)cc1C [Compound 196]
- activity: Ratio between the % of control (basal activity) of compound of formula (I) at 30 μM and the % of control (basal activity) of AMP at 30 μM [2]: 165%
- Activity (table III): Concentration of compound (I) for a glucose uptake equal or higher to glucose uptake induced by insulin (170 nM) (H-2 Kb cells): ++ (^++ or **concentration of compound (I) ≦10 micro Molar)

Structure (SMILES): Cc1ccc(-c2csc3[nH]c(=O)c(-c4ccccc4)c(O)c23)c(O)c1F [Compound 198]
- activity: Ratio between the % of control (basal activity) of compound of formula (I) at 30 μM and the % of control (basal activity) of AMP at 30 μM [2]: 363%
- Activity (table III): Concentration of compound (I) for a glucose uptake equal or higher to glucose uptake induced by insulin (170 nM) (H-2 Kb cells): + (^+ or *concentration of compound (I) >10 micro Molar)

Structure (SMILES): COc1c(-c2c(Cl)sc3[nH]c(=O)c(-c4ccccc4)c(O)c23)ccc(C)c1C [Compound 201]
- activity: Ratio between the % of control (basal activity) of compound of formula (I) at 30 μM and the % of control (basal activity) of AMP at 30 μM [2]: 122%
- Activity (table III): Concentration of compound (I) for a glucose uptake equal or higher to glucose uptake induced by insulin (170 nM) (H-2 Kb cells): + (^+ or *concentration of compound (I) >10 micro Molar)

Structure (SMILES): Cc1ccc(-c2c(Cl)sc3[nH]c(=O)c(-c4ccccc4)c(O)c23)c(O)c1C [Compound 202]
- activity: Ratio between the % of control (basal activity) of compound of formula (I) at 30 μM and the % of control (basal activity) of AMP at 30 μM [2]: 305%
- Activity (table III): Concentration of compound (I) for a glucose uptake equal or higher to glucose uptake induced by insulin (170 nM) (H-2 Kb cells): ++ (^++ or **concentration of compound (I) ≦10 micro Molar)

Structure (SMILES): Cc1ccc(-c2csc3[nH]c(=O)c(-c4ccc(F)cc4)c(O)c23)c(O)c1F [Compound 204]
- activity: Ratio between the % of control (basal activity) of compound of formula (I) at 30 μM and the % of control (basal activity) of AMP at 30 μM [2]: 189%
- Activity (table III): Concentration of compound (I) for a glucose uptake equal or higher to glucose uptake induced by insulin (170 nM) (H-2 Kb cells): + (^+ or *concentration of compound (I) >10 micro Molar)

Structure (SMILES): Cc1ccc(-c2c(Cl)sc3[nH]c(=O)c(-c4ccc(F)cc4)c(O)c23)c(O)c1F [Compound 206]
- activity: Ratio between the % of control (basal activity) of compound of formula (I) at 30 μM and the % of control (basal activity) of AMP at 30 μM [2]: 184%
- Activity (table III): Concentration of compound (I) for a glucose uptake equal or higher to glucose uptake induced by insulin (170 nM) (H-2 Kb cells): + (^+ or *concentration of compound (I) >10 micro Molar)

Structure (SMILES): Cc1cc(O)c(-c2c(Cl)sc3[nH]c(=O)c(-c4ccccc4)c(O)c23)cc1C [Compound 207]
- activity: Ratio between the % of control (basal activity) of compound of formula (I) at 30 μM and the % of control (basal activity) of AMP at 30 μM [2]: 213%
- Activity (table III): Concentration of compound (I) for a glucose uptake equal or higher to glucose uptake induced by insulin (170 nM) (H-2 Kb cells): + (^+ or *concentration of compound (I) >10 micro Molar)

Structure (SMILES): O=c1[nH]c2sc(Cl)c(-c3ccc(F)c(F)c3O)c2c(O)c1-c1ccccc1 [Compound 208]
- activity: Ratio between the % of control (basal activity) of compound of formula (I) at 30 μM and the % of control (basal activity) of AMP at 30 μM [2]: 131%
- Activity (table III): Concentration of compound (I) for a glucose uptake equal or higher to glucose uptake induced by insulin (170 nM) (H-2 Kb cells): + (^+ or *concentration of compound (I) >10 micro Molar)

Structure (SMILES): CCc1ccc(-c2c(Cl)sc3[nH]c(=O)c(-c4ccccc4)c(O)c23)c(O)c1 [Compound 209]
- activity: Ratio between the % of control (basal activity) of compound of formula (I) at 30 μM and the % of control (basal activity) of AMP at 30 μM [2]: 297%
- Activity (table III): Concentration of compound (I) for a glucose uptake equal or higher to glucose uptake induced by insulin (170 nM) (H-2 Kb cells): ++ (^++ or **concentration of compound (I) ≦10 micro Molar)

Structure (SMILES): Cc1ccc(-c2c(Cl)sc3[nH]c(=O)c(-c4ccccc4)c(O)c23)c(O)c1F [Compound 210]
- activity: Ratio between the % of control (basal activity) of compound of formula (I) at 30 μM and the % of control (basal activity) of AMP at 30 μM [2]: 181%
- Activity (table III): Concentration of compound (I) for a glucose uptake equal or higher to glucose uptake induced by insulin (170 nM) (H-2 Kb cells): ++ (^++ or **concentration of compound (I) ≦10 micro Molar)

Structure (SMILES): Cc1ccc(-c2c(F)sc3[nH]c(=O)c(-c4ccc(F)cc4)c(O)c23)c(O)c1F [Compound 211]
- activity: Ratio between the % of control (basal activity) of compound of formula (I) at 30 μM and the % of control (basal activity) of AMP at 30 μM [2]: 149%
- Activity (table III): Concentration of compound (I) for a glucose uptake equal or higher to glucose uptake induced by insulin (170 nM) (H-2 Kb cells): + (^+ or *concentration of compound (I) >10 micro Molar)

Structure (SMILES): COc1ccc(-c2c(O)c3c(-c4ccc(F)cc4O)c(Cl)sc3[nH]c2=O)cc1 [Compound 212]
- activity: Ratio between the % of control (basal activity) of compound of formula (I) at 30 μM and the % of control (basal activity) of AMP at 30 μM [2]: 183%
- Activity (table III): Concentration of compound (I) for a glucose uptake equal or higher to glucose uptake induced by insulin (170 nM) (H-2 Kb cells): + (^+ or *concentration of compound (I) >10 micro Molar)

Structure (SMILES): O=c1[nH]c2sc(Cl)c(-c3ccc(F)cc3O)c2c(O)c1-c1ccc(F)cc1 [Compound 213]
- activity: Ratio between the % of control (basal activity) of compound of formula (I) at 30 μM and the % of control (basal activity) of AMP at 30 μM [2]: 349%
- Activity (table III): Concentration of compound (I) for a glucose uptake equal or higher to glucose uptake induced by insulin (170 nM) (H-2 Kb cells): + (^+ or *concentration of compound (I) >10 micro Molar)
